Experimental data: article PMC5869189 (Frontiers in Immunology, 2018)
Values joined by “and” are separate entries in the source; they are usually repeats but may differ in a detail not shown here. Identical values can stand only once.

Columns and labels:
[1] = system: PBMC from healthy, seropositive donors; format: cell-based, human
HLA-DRB1*07 = format: binding, human; parameters: reference not given here; settings: 24–72 h at 37°C
HLA-DRB1*09 = format: binding, human; parameters: reference not given here; settings: 24–72 h at 37°C
HLA-DRB1*11:01 = target: T1, HLA-DRB1*11:01 (Homo sapiens, UniProt P01903+P01911, A100R/A169T/A87E/I96F/K41T/L162R/M171V/P40S/Q125H/Q178H/Q39Y/Q99D/R42S/S66Y/T262R/V115G/W38E); format: binding; parameters: reference not given here; settings: 24–72 h at 37°C
T1 construct: Purified HLA-DR heterodimers derived from the relevant EBV B-lymphoblastoid cell lines; endogenous in cells
T1 sequence (P01903 26-254, other chains not shown): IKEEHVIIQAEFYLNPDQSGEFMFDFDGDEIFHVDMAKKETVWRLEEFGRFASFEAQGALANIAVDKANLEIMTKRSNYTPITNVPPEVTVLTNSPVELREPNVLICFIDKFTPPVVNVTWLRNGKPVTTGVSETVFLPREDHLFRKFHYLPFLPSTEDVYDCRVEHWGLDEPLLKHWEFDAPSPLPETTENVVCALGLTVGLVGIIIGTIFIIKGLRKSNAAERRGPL

HLA-DRB1*12:02 = HLA-DRB1*12:02 (Homo sapiens, UniProt P01903+P01911, A100R/A169T/D57E/D86V/F55L/H45Y/I96F/K41T/L162R/M171V/P40S/Q125H/Q178H/Q39Y/Q99D/R42G/S66L/T262R/V114A/V67L/W38E/Y59H/Y61H/Y89S); format: binding; parameters: reference not given here; settings: 24–72 h at 37°C
HLA-DRB1*15:01 = target: T2, HLA-DRB1*15:01 (Homo sapiens, UniProt P01903+P01911); format: binding; parameters: reference not given here; settings: 24–72 h at 37°C
T2 construct: Purified HLA-DR heterodimers derived from the relevant EBV B-lymphoblastoid cell lines; endogenous in cells

HLA-DRB1*15:02 = target: T3, HLA-DRB1*15:02 (Homo sapiens, UniProt P01903+P01911, V115G); format: binding; parameters: reference not given here; settings: 24–72 h at 37°C
T3 construct: Purified HLA-DR heterodimers derived from the relevant EBV B-lymphoblastoid cell lines; endogenous in cells
T3 sequence (P01903 26-254, other chains not shown): as above

HLA-DRB1*04 = format: binding, human; parameters: reference not given here; settings: 24–72 h at 37°C
[2] = system: PBMC from melioidosis patients and control donors; format: cell-based, human
[3] = system: HLA class-II heterodimers (HLA DRB1*04, 07, 09, 11:01, 12:02, 15:01, 15:02); format: binding, human
[4] = system: HLA-DQB1*0602 and HLA-DQB1*0302; settings: cited from earlier work

Sequence | % Responders [1] | Median SFC/10^6 PBMCs (IFN-g) [1] | other results
AAKIQGMNVEVVVATGYTDR [BPSL2522_P13] | 100% | 291 | Elispot, Median SFC/10^6 PBMCs of HLA donors [1]: 362 SFC/10^6 PBMCs and 488 SFC/10^6 PBMCs and 487 SFC/10^6 PBMCs and 578 SFC/10^6 PBMCs and 351 SFC/10^6 PBMCs and 534 SFC/10^6 PBMCs; HLA binding, relative HLA binding affinity (HLA-DRB1*07): 11; HLA binding, relative HLA binding affinity (HLA-DRB1*09): 42; HLA binding, relative HLA binding affinity (HLA-DRB1*11:01): 23; HLA binding, relative HLA binding affinity (HLA-DRB1*12:02): 5; HLA binding, relative HLA binding affinity (HLA-DRB1*15:01): 5; HLA binding, relative HLA binding affinity (HLA-DRB1*15:02): 667
KDFTFVCPTEIVEFAKLAKQ [BPSL2096_P6] | 82.4% and 82% | 333 | HLA binding, relative HLA binding affinity (HLA-DRB1*04): 9; HLA binding, relative HLA binding affinity (HLA-DRB1*07): 0.3; HLA binding, relative HLA binding affinity (HLA-DRB1*09): 18; HLA binding, relative HLA binding affinity (HLA-DRB1*11:01): 43; HLA binding, relative HLA binding affinity (HLA-DRB1*12:02): 25; HLA binding, relative HLA binding affinity (HLA-DRB1*15:01): 7; HLA binding, relative HLA binding affinity (HLA-DRB1*15:02): 222; IFNγ response, acute septicemic melioidosis compared with recovered individuals (Figure 3) [2]: lower during acute disease; HLA class-II binding across the panel (in words) [3]: moderate to high affinity; Presentation through HLA-DQ [4]: can be presented also through HLA-DQB1*0602 and HLA-DQB1*0302
NQNPQITASVVGYTDSTGSA [BPSL0999_P14] | 95.7% and 96% | 373 | Elispot, Median SFC/10^6 PBMCs of HLA donors [1]: 583 SFC/10^6 PBMCs and 417 SFC/10^6 PBMCs and 601 SFC/10^6 PBMCs and 460 SFC/10^6 PBMCs and 567 SFC/10^6 PBMCs and 588 SFC/10^6 PBMCs and 489 SFC/10^6 PBMCs; HLA binding, relative HLA binding affinity (HLA-DRB1*04): 33; HLA binding, relative HLA binding affinity (HLA-DRB1*07): 30.2; HLA binding, relative HLA binding affinity (HLA-DRB1*09): 37; HLA binding, relative HLA binding affinity (HLA-DRB1*11:01): 189; HLA binding, relative HLA binding affinity (HLA-DRB1*12:02): >136; HLA binding, relative HLA binding affinity (HLA-DRB1*15:01): 1; HLA binding, relative HLA binding affinity (HLA-DRB1*15:02): 542
PAGKQKLDELAAKIQGMNVE [BPSL2522_P12] | 97.1% and 97% | 308 | HLA binding, relative HLA binding affinity (HLA-DRB1*04): >145; HLA binding, relative HLA binding affinity (HLA-DRB1*07): 333; HLA binding, relative HLA binding affinity (HLA-DRB1*09): >689; HLA binding, relative HLA binding affinity (HLA-DRB1*11:01): 77; HLA binding, relative HLA binding affinity (HLA-DRB1*12:02): 40; HLA binding, relative HLA binding affinity (HLA-DRB1*15:01): >270; HLA binding, relative HLA binding affinity (HLA-DRB1*15:02): >3 333
RGVAANRLSAQGMGASNPIA [BPSL0999_P18] | 93.6% and 94% | 375 | Elispot, Median SFC/10^6 PBMCs of HLA donors [1]: 617 SFC/10^6 PBMCs and 415 SFC/10^6 PBMCs and 456 SFC/10^6 PBMCs and 487 SFC/10^6 PBMCs and 634 SFC/10^6 PBMCs and 616 SFC/10^6 PBMCs and 441 SFC/10^6 PBMCs; HLA binding, relative HLA binding affinity (HLA-DRB1*04): 82; HLA binding, relative HLA binding affinity (HLA-DRB1*07): 11; HLA binding, relative HLA binding affinity (HLA-DRB1*09): 367; HLA binding, relative HLA binding affinity (HLA-DRB1*11:01): 72; HLA binding, relative HLA binding affinity (HLA-DRB1*12:02): 14; HLA binding, relative HLA binding affinity (HLA-DRB1*15:01): 157; HLA binding, relative HLA binding affinity (HLA-DRB1*15:02): >3 333
RVEVEVVGTQEVQKTTVPAQ [BPSL2522_P23] | 97.1% | 361 | 
RVRAELAARQARSGPVAPPW [BPSS1599_P24] | 87.5% | 119 | 
SALSATDQANATAMVAQINA [BPSL3319_P27] | 86.7% | 259 | 
SAQSVPASRQAVNDNWVNGT [BPSL2522_P3] | 88.6% | 267 | 
SDDPLPPPLETELAQAGDIA [BPSS0530_P9] | 90.7% | 283 | 
SLRRAQAVKSYLVSKGVPAN [BPSL2522_P16] | 82.9% | 317 | 
SLSRRNELRAEAVELAKKLK [BPSS1599_P3] | 89.6% | 156 | 
SNHGWGFTLLDLDQDGLGLG [BPSS0530_P5] | 93.0% | 224 | 
SQKITYQADTLFDFDKAVLK [BPSL2522_P10] | 91.4% | 297 | 
SQVANDNAVAAQVAGNLRT [BPSS1531_P41] | 80.0% | 197 | 
SVLAQEAPARQHRIDMHGMR [BPSS1531_P31] | 88.6% | 182 | 
TAACVVLGGAFAYWHHRAKV [BPSS1599_P21] | 100.0% | 170 | 
TELAQAGDIACLALQAARTG [BPSS0530_P10] | 93.0% | 280 | 

Sequence | % Responders [1] | Median SFC/10^6 PBMCs (IFN-g) [1] | other results
TEQPDGSLKLNVPSSVTFAT [BPSL0999_P10] | 93.6% | 382 | 
TKLGAVEQIQKLVDLQLPGA [BPSS0530_P38] | 90.7% | 305 | 
TPEIRQDAEFGRQVYEATLC [BPSS1525_P11] | 84.6% | 184 | 
TPLADDSVVRTQLLARLQWL [BPSS1599_P34] | 97.9% | 147 | 
TQLLARLQWLDAAAKLERLL [BPSS1599_P35] | 93.8% | 145 | 
VDKQWNLKKLIFAFSAAMPA [BPSS0530_P35] | 90.7% | 243 | 
VGLQAGAQSKAIVFLFMTQD [BPSL1445_P12] | 93.9% | 321 | 
VGTQEVQKTTVPAQ [BPSL2522_P22] | 97.1% | 270 | 
VGYTDSTGSAAHNQTLSQNR [BPSL0999_P15] | 97.9% | 367 | 
VLPGVDEELADRELGYDHDD [BPSS0530_P29] | 93.0% | 234 | 
VPLTAPTANDTPLADDSVVR [BPSS1599_P33] | 83.3% | 147 | 
VRPAFIEALGDAARATGLPG [BPSS1525_P15] | 89.7% | 220 | 
VVVATGYTDRIGSDKYNDRL [BPSL2522_P14] | 100% | 290 | HLA binding, relative HLA binding affinity (HLA-DRB1*04): >145; HLA binding, relative HLA binding affinity (HLA-DRB1*07): >336; HLA binding, relative HLA binding affinity (HLA-DRB1*09): >689; HLA binding, relative HLA binding affinity (HLA-DRB1*11:01): >278; HLA binding, relative HLA binding affinity (HLA-DRB1*12:02): >136; HLA binding, relative HLA binding affinity (HLA-DRB1*15:01): 10; HLA binding, relative HLA binding affinity (HLA-DRB1*15:02): 1 826; IFNγ response compared between cohorts (Figure 2) [2]: lower in recovered patients than in seropositive healthy donors; IFNγ response, acute septicemic melioidosis compared with recovered individuals (Figure 3) [2]: lower during acute disease
WARNGSNVRYLLVVEPGATL [BPSS1599_P30] | 91.7% | 155 | 
WKSQLRSDEVALPIARVAGR [BPSS0530_P17] | 97.7% | 274 | 
WSDGMLIETQHFQQLERHLA [BPSS0530_P2] | 90.7% | 260 | 
WWALRPVERRLSPRAALIAA [BPSS1599_P19] | 95.8% | 169 | 
YLVSKGVPANKVYTEGKGKR [BPSL2522_P17] | 82.9% | 312 | 
